pIC50: −log10 of the molar value.
How the values were obtained:
[1] = molecular target: PDE7A (Homo sapiens (Human), UniProt Q13946); experiment: initial PDE7A inhibition assay, different assay methodology; format: biochemical; conditions: read-out: PDE7A IC50 in the initial assay work
[2] = molecular target: PDE7B (Homo sapiens (Human), UniProt Q9NP56); experiment: initial PDE7B inhibition assay, different assay methodology; format: biochemical; conditions: reliability questioned
[3] = molecular target: Monoamine Oxidase MAO-B (Homo sapiens (Human), UniProt P27338); experiment: Monoamine Oxidase MAO-B enzyme assay; format: biochemical
Sequence of Monoamine Oxidase MAO-B (P27338 whole entry, looked up): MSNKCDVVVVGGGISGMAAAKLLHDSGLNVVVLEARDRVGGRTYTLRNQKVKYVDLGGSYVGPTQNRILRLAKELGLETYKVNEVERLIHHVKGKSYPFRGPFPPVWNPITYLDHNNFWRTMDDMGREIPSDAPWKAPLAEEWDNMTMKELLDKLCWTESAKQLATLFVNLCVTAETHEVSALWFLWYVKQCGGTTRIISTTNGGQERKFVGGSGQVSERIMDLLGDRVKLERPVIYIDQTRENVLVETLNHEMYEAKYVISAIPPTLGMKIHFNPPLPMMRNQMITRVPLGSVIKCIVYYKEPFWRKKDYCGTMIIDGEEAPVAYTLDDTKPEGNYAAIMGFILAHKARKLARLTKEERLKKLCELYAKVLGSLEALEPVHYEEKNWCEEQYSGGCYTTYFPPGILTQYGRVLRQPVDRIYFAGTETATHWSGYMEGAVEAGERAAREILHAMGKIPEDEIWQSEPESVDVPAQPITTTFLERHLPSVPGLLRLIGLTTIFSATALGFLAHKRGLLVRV

[4] = molecular target: Tyrosine Hydroxylase (Rattus norvegicus (Rat), UniProt P04177); experiment: Tyrosine Hydroxylase enzyme assay; format: biochemical; conditions: 10.0 μM
Sequence of Tyrosine Hydroxylase (P04177 whole entry): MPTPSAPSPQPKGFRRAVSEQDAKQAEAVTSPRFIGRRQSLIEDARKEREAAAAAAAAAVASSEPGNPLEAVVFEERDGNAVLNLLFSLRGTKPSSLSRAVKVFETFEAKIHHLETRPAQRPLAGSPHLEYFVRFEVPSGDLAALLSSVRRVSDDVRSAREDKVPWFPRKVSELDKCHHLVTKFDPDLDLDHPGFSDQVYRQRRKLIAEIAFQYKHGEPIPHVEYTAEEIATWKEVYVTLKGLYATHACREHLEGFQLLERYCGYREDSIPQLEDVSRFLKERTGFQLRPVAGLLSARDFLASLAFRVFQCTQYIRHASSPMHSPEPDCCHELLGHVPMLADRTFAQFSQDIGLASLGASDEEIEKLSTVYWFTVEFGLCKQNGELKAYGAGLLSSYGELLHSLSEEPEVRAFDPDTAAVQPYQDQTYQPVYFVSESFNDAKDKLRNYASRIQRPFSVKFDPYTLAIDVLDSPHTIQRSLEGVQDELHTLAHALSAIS
Description: Tyrosine Hydroxylase was assayed as described in Roskoski, R., Jr., et al., J. Biochem 218:363-370 (1993) with the following modifications. Tyrosine Hydroxylase was isolated from Wistar rat brain. The substrate was 100 μM L-[3,5-^3H]Tyrosine+L-Tyrosine. The vehicle control was 1% DMSO. Compound OM69 was tested at 10 μM in incubation buffer (125 mM MES, pH 6.0, 0.5 mg/ml Catalase, 12.5 mM DTT, 0.5 mM (6R)-5,6,7,8-Tetrahydrobiopterin). The reaction was pre-incubated for 15 minutes at 37° C. Tyrosine Hydroxylase enzyme was added, and the reaction was incubated for 20 minutes at 37° C. [^3H]-H20 was quantitated.

[5] = molecular target: Dopamine D1 receptor (Homo sapiens (Human), UniProt P21728); experiment: Dopamine D1 radioligand binding assay; conditions: 10.0 μM
Sequence of Dopamine D1 receptor (P21728 whole entry): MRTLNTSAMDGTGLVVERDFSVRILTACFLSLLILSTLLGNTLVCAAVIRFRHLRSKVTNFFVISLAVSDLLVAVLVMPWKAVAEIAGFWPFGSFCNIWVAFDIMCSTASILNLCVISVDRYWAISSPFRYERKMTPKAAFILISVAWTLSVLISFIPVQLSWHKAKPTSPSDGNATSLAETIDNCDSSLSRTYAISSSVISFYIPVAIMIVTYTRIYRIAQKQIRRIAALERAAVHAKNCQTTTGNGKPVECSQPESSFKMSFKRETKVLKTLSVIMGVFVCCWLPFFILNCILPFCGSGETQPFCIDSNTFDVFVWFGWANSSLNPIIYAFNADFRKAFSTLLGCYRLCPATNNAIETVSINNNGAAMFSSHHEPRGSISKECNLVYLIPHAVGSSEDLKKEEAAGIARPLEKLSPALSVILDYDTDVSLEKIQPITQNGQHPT

[6] = molecular target: Dopamine D3 receptor (Homo sapiens (Human), UniProt P35462); experiment: Dopamine D3 radioligand binding assay; conditions: 10.0 μM
Sequence of Dopamine D3 receptor (P35462 whole entry): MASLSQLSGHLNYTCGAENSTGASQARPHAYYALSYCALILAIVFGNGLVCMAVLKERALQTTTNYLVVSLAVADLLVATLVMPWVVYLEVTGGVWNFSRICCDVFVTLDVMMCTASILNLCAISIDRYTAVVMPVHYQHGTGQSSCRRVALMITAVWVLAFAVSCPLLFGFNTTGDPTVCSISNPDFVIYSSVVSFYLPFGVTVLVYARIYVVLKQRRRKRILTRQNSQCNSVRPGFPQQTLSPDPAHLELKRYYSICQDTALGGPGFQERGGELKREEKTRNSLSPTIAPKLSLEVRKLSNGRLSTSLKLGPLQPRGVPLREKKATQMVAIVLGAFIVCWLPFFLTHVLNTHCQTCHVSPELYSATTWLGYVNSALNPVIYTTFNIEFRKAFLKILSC

[7] = molecular target: Dopamine D4.2 receptor (Homo sapiens (Human), UniProt P21917, DEL265-296); experiment: Dopamine D4.2 radioligand binding assay; conditions: 10.0 μM
Sequence of Dopamine D4.2 receptor (P21917 other isoform, or with tags, fused parts or gaps del 265-296): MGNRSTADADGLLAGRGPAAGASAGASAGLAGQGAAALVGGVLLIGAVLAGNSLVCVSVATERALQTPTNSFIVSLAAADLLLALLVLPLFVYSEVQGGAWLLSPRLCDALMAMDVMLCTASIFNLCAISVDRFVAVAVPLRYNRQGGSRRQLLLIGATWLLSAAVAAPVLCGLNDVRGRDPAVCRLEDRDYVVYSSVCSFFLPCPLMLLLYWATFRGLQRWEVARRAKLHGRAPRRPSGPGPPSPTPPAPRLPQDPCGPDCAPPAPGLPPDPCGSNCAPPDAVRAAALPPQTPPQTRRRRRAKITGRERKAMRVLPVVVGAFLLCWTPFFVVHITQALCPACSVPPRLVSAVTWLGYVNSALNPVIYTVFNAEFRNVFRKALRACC

[8] = molecular target: Dopamine D5 receptor (Homo sapiens (Human), UniProt P21918); experiment: Dopamine D5 radioligand binding assay; conditions: 10.0 μM
Sequence of Dopamine D5 receptor (P21918 whole entry): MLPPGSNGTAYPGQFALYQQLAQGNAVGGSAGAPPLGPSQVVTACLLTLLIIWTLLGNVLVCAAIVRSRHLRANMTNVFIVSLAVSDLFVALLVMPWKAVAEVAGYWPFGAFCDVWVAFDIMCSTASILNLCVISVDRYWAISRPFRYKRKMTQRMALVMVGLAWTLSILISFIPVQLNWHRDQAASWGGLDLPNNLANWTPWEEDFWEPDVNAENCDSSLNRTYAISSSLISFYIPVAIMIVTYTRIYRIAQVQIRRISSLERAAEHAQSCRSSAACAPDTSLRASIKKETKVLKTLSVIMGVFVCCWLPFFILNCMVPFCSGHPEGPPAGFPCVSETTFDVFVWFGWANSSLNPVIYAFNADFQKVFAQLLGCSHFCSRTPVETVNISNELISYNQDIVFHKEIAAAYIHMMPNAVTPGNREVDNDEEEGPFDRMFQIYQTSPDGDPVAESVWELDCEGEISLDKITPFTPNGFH

[9] = molecular target: gabapentin receptor (Rattus norvegicus, UniProt P54290); experiment: Gabapentin radioligand binding assay; conditions: 10.0 μM
Sequence of gabapentin receptor (P54290 25-944 limits assumed): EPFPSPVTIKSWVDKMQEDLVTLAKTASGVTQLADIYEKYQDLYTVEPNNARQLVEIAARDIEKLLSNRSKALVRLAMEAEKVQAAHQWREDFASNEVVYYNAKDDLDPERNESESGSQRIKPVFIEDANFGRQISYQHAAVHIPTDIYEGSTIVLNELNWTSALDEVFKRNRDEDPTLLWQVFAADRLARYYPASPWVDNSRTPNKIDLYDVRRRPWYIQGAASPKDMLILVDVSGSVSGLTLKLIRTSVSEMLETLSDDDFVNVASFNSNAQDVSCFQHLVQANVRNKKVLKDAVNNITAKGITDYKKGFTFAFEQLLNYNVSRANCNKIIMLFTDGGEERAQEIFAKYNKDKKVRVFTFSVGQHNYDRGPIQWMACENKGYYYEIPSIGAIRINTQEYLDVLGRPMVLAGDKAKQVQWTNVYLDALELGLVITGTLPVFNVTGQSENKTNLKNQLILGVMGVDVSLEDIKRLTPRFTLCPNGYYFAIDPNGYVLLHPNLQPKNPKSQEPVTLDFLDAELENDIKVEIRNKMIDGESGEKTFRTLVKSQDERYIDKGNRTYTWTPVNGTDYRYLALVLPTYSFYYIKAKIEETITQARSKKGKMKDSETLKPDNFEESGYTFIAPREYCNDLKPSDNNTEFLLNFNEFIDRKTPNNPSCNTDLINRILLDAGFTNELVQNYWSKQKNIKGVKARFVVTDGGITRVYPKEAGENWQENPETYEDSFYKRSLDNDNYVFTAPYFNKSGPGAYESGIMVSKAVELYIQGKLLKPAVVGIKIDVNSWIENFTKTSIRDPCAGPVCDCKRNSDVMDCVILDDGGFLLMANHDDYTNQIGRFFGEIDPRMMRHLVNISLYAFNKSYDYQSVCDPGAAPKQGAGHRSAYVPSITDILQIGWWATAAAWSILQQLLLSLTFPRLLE
Sequence of gabapentin receptor (P54290 945-1091 limits assumed): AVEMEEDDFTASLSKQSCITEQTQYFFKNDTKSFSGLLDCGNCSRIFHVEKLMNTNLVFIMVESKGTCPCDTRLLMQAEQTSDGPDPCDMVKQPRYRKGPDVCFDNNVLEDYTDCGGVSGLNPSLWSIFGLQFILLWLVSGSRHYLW

[10] = molecular target: Dopamine Transporter (DAT) (Homo sapiens (Human), UniProt Q01959); experiment: Dopamine Transporter (DAT) radioligand binding assay; conditions: 10.0 μM
[11] = molecular target: Adenosine A2A receptor (Homo sapiens (Human), UniProt P29274); experiment: Adenosine A2A receptor radioligand binding assay
Sequence of Adenosine A2A receptor (P29274 whole entry): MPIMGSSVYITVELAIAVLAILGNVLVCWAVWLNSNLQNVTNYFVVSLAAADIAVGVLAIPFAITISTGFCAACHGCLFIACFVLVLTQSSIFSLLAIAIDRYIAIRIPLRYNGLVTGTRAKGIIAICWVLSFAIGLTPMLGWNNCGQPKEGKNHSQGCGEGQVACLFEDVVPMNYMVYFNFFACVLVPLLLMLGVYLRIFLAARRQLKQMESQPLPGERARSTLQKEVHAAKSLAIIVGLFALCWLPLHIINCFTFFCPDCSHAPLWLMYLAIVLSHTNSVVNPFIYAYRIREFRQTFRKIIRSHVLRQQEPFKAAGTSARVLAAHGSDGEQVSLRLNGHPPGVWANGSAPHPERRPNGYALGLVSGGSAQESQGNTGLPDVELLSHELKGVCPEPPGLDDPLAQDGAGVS
Description: An Adenosine A2A receptor radioligand binding assay was carried out as described in Varani, K., et al., Br. J. Pharmacol. 117:1693-1701, 1996, with the following modifications. Human recombinant A2A receptor was expressed in HEK-293 cells. The ligand used in the assay was 0.05 μM [^3H]CGS-21680. The non-specific ligand was 50 μM NECA. The vehicle control was 1% DMSO. Compound OM69 was tested at 10 μM in incubation buffer (50 mM Tris-HCL, pH 7.4, 10 mM MgCl2, 1 mM EDTA, 2 U/mL Adenosine Deaminase). The reaction was incubated for 90 minutes at 25° C. Radioligand binding was quantitated. […]

Sequence of PDE7B (Q9NP56 whole entry, species assumed): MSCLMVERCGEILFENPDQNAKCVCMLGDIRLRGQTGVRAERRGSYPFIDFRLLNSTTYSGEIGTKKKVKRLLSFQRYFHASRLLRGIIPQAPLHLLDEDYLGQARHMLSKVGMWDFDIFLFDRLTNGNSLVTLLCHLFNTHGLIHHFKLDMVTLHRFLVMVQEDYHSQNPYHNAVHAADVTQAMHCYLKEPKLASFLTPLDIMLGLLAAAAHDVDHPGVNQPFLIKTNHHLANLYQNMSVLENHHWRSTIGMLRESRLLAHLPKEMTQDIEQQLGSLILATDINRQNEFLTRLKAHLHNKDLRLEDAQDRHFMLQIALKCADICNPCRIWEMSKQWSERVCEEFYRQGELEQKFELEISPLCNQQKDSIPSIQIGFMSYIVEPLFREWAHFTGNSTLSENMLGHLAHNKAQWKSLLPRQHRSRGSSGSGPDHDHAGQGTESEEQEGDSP

COc1cc(N)ccc1-c1cc2c(c(=O)[nH]1)C(C1CCCCC1)N=[N+]2C (stereo not shown) [OM69]
pIC50 [1]: 8.46
pIC50 [2]: 7.01
percent inhibition of MAO-B enzymatic activity ([3]; Exp #1, 10.0 μM): 49.0%
percent inhibition of MAO-B enzymatic activity ([3]; Exp #2, 1.0 μM): 27%
percent inhibition of MAO-B enzymatic activity ([3]; Exp #2, 10.0 μM): 67.0%
pIC50 ([3]; estimated from 27% inhibition at 1 μM, read-out: MAO-B IC50 indicated by the percentage inhibition): ~5.57
inhibition of MAO-B at brain concentration ([3]; if present in the brain at 17 nM): less than 0.7%
percent inhibition of Tyrosine Hydroxylase enzymatic activity [4]: 4.0%
percent inhibition of ligand binding to Dopamine D1 [5]: −5.0%
percent inhibition of ligand binding to Dopamine D3 [6]: −13.0%
percent inhibition of ligand binding to Dopamine D4.2 [7]: −16.0%
percent inhibition of ligand binding to Dopamine D5 [8]: 4.0%
percent inhibition of ligand binding, Gabapentin [9]: 15.0%
percent inhibition of ligand binding to Dopamine Transporter (DAT) [10]: 18.0%
percent inhibition of ligand binding to Adenosine A2A Receptor ([11]; 10.0 μM): 41%
percent occupation of A2A receptors ([11]; brain level 8.5 to 17 nM (dose 0.1 mg/kg), using IC50 of 10 μM): about 0.17%

Source: US8637528B2, “Use of PDE7 inhibitors for the treatment of movement disorders” (Omeros Corporation, priority 2007, dated 2014)
